Results: ChEMBL document CHEMBL5584255, “Synthesis and antibacterial medicinal evaluation of carbothioamido hydrazonyl thiazolylquinolone with multitargeting antimicrobial potential to combat increasingly global resistance” (Eur J Med Chem, 2024)
Values after ≈ are worked out from the molar mass of the structure shown. Active and inactive are the calls of the source. The rule behind the calls is not given here.

What was measured:
Staphylococcus aureus [1] = assay: Antibacterial activity against Staphylococcus aureus ATCC 25923 by microbroth dilution method; assay type: functional
Staphylococcus aureus [2] = assay: Antibacterial activity against Staphylococcus aureus ATCC 29213 by microbroth dilution method; assay type: functional
Staphylococcus aureus [3] = assay: Antibacterial activity against drug-resistant Staphylococcus aureus by microbroth dilution method; assay type: functional
Staphylococcus aureus [4] = assay: Antibacterial activity against methicillin-resistant Staphylococcus aureus N315 by microbroth dilution method; assay type: functional
Enterococcus faecalis = assay: Antibacterial activity against drug-resistant Enterococcus faecalis by microbroth dilution method; assay type: functional
Staphylococcus aureus [5] = assay: Potency index, ratio of norfloxacin MIC to test compound MIC for drug-resistant Staphylococcus aureus by microbroth dilution method; assay type: functional
Candida albicans [6] = assay: Antifungal activity against Candida albicans ATCC 90023; assay type: functional
Candida albicans [7] = assay: Antifungal activity against drug-resistant Candida albicans; assay type: functional
Candida parapsilosis = assay: Antifungal activity against Candida parapsilosis ATCC 22019; assay type: functional; settings: Lodderomyces parapsilosis
Candida tropicalis = assay: Antifungal activity against drug-resistant Candida tropicalis; assay type: functional
Aspergillus fumigatus = assay: Antifungal activity against Aspergillus fumigatus; assay type: functional
Escherichia coli [8] = assay: Antibacterial activity against Escherichia coli ATCC 25922 by microbroth dilution method; assay type: functional
Pseudomonas aeruginosa [9] = assay: Antibacterial activity against Pseudomonas aeruginosa ATCC 27853 by microbroth dilution method; assay type: functional
Escherichia coli [10] = assay: Antibacterial activity against drug-resistant Escherichia coli by microbroth dilution method; assay type: functional
Pseudomonas aeruginosa [11] = assay: Antibacterial activity against Pseudomonas aeruginosa by microbroth dilution method; assay type: functional
Klebsiella pneumoniae = assay: Antibacterial activity against Klebsiella pneumoniae by microbroth dilution method; assay type: functional
Acinetobacter baumannii = assay: Antibacterial activity against Acinetobacter baumannii by microbroth dilution method; assay type: functional
[12] = Hemolytic activity in human RBC assessed as hemolysis ratio at 0.0024 mM measured after 1 hr relative to control; assay type: toxicity, cell-based, Erythrocyte; settings: red blood cells (erythrocytes)
[13] = Hemolytic activity in human RBC assessed as hemolysis ratio at 0.0047 mM measured after 1 hr relative to control; assay type: toxicity, cell-based, Erythrocyte; settings: red blood cells (erythrocytes)
[14] = Hemolytic activity in human RBC assessed as hemolysis ratio at 0.0094 mM measured after 1 hr relative to control; assay type: toxicity, cell-based, Erythrocyte; settings: red blood cells (erythrocytes)
[15] = Hemolytic activity in human RBC assessed as hemolysis ratio at 0.0189 mM measured after 1 hr relative to control; assay type: toxicity, cell-based, Erythrocyte; settings: red blood cells (erythrocytes)
[16] = Cytotoxicity against human A549 cells assessed as cell viability up to 0.3019 mM measured after 72 hrs by MTT assay relative to control; assay type: toxicity, cell-based; settings: read-out: Activity
[17] = Cytotoxicity against mouse L929 cells assessed as cell viability up to 0.3019 mM measured after 72 hrs by MTT assay relative to control; assay type: toxicity, cell-based; settings: read-out: Activity
[18] = Toxicity in mouse assessed as change in body weight at 5 to 10 mg/kg administered for 10 days; assay type: organism-based; settings: in vivo, 240 h, dose 5-10 mg/kg, time 10 day
[19] = Toxicity in mouse assessed as change in liver morphology at 5 to 10 mg/kg administered for 10 days by hematoxylin and eosin staining based assay; assay type: organism-based; settings: in vivo, 240 h, dose 5-10 mg/kg, time 10 day
[20] = Toxicity in mouse assessed as change in spleen morphology at 5 to 10 mg/kg administered for 10 days by hematoxylin and eosin staining based assay; assay type: organism-based; settings: in vivo, 240 h, dose 5-10 mg/kg, time 10 day
[21] = Toxicity in mouse assessed as change in kidney morphology at 5 to 10 mg/kg administered for 10 days by hematoxylin and eosin staining based assay; assay type: organism-based; settings: in vivo, 240 h, dose 5-10 mg/kg, time 10 day
Staphylococcus aureus [22] = assay: Induction of resistance development in Staphylococcus aureus measured after 16 passages; assay type: functional
DNA [23] = assay: Binding affinity to drug-resistant Staphylococcus aureus DNA assessed as hypochromic effect at 7.86 x 10^-5 mol/L by UV-visible absorption spectra analysis; assay type: nucleic-acid assay; settings: dose 7.86 10^-5mol/L
DNA [24] = assay: Binding affinity to drug-resistant Staphylococcus aureus DNA by UV-visible absorption spectra analysis; assay type: nucleic-acid assay
DNA [25] = assay: Displacement of neutral red from drug-resistant Staphylococcus aureus DNA assessed as DNA intercalation by UV-visible absorption spectra analysis; assay type: nucleic-acid assay; settings: dose <= 1.5 10^-5mol/L
DNA [26] = assay: Displacement of neutral red from drug-resistant Staphylococcus aureus DNA assessed as DNA intercalation by measuring blue shift up to 1.5 x 10^-5 mol/L by UV-visible absorption spectra analysis (reference value: 460 nm); assay type: nucleic-acid assay; settings: dose <= 1.5 10^-5mol/L
Topoisomerase IV = Topoisomerase IV (Staphylococcus aureus, UniProt P0C1S7+P0C1U9); assay: Inhibition of drug-resistant Staphylococcus aureus topoisomerase 4; assay type: protein-complex assay
Cell membrane = assay: Induction of membrane permeabilization in drug-resistant Staphylococcus aureus at 0.0283 mM measured within 60 mins by propidium iodide staining based fluorescence assay

Topoisomerase IV, sequence (P0C1U9 whole entry): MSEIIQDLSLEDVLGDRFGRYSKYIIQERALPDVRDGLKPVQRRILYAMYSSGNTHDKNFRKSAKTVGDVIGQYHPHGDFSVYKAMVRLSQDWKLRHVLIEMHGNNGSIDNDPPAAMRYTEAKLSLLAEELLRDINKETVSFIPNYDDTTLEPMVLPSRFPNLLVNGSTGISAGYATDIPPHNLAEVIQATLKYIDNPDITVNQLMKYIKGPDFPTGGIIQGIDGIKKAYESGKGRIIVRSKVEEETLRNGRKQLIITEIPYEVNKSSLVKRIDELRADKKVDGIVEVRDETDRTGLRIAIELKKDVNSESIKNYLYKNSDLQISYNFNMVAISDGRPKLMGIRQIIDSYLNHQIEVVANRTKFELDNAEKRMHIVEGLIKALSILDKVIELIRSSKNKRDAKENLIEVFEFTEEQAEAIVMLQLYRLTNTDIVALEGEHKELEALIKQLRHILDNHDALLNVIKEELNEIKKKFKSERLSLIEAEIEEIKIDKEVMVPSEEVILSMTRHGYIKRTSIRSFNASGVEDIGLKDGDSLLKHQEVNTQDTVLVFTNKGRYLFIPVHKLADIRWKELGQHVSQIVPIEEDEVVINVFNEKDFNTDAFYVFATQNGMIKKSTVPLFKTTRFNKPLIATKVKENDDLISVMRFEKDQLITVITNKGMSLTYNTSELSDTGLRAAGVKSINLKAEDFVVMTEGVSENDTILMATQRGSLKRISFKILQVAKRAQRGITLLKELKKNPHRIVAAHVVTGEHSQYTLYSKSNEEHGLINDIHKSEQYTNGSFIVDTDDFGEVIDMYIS
Topoisomerase IV, sequence (P0C1S7 whole entry): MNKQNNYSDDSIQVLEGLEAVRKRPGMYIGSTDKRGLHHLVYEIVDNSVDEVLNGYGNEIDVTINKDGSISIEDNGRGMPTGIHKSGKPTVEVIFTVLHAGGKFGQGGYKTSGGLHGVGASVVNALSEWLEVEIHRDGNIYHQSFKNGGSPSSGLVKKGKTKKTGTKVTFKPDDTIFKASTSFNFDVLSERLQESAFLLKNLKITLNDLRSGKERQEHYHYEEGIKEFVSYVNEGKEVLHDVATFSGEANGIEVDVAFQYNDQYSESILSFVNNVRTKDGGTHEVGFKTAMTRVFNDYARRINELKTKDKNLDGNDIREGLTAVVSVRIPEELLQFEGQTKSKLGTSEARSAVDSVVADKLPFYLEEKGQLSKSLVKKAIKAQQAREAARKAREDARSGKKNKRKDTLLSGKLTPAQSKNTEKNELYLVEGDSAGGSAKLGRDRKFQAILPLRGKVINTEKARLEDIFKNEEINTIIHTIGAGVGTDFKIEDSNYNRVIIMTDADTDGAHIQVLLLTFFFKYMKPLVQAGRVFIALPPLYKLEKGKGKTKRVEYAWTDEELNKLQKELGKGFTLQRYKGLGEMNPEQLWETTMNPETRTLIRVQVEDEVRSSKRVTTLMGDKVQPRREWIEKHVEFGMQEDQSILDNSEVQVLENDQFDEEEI

**Q.** With `C/C(Cn1cc(-c2csc(N)n2)c(=O)c2cc(F)c(Cl)cc21)=N\NC(N)=S` as the compound, how does the MIC (Staphylococcus aureus [1]) read?
**A.** 38 µM (≈ 16.1 µg/mL)

**Q.** What about the MIC (Staphylococcus aureus [2]) of the same compound?
**A.** 5 µM (≈ 2.12 µg/mL)

**Q.** What about the MIC (Staphylococcus aureus [3]) of the same compound?
**A.** 5 µM (≈ 2.12 µg/mL)

**Q.** What about the MIC (Staphylococcus aureus [4]) of the same compound?
**A.** 38 µM (≈ 16.1 µg/mL)

**Q.** What about the MIC (Enterococcus faecalis) of the same compound?
**A.** 302 µM (≈ 128 µg/mL)

**Q.** What about the Ratio (Staphylococcus aureus [5]) of the same compound?
**A.** 5

**Q.** What about the MIC (Candida albicans [6]) of the same compound?
**A.** 19 µM (≈ 8.07 µg/mL)

**Q.** What about the MIC (Candida albicans [7]) of the same compound?
**A.** 19 µM (≈ 8.07 µg/mL)

**Q.** And the MIC (Candida parapsilosis)?
**A.** 5 µM (≈ 2.12 µg/mL)

**Q.** And the MIC (Candida tropicalis)?
**A.** 151 µM (≈ 64.2 µg/mL)

**Q.** And the MIC (Aspergillus fumigatus)?
**A.** 151 µM (≈ 64.2 µg/mL)

**Q.** What about the MIC (Escherichia coli [8]) of the same compound?
**A.** 19 µM (≈ 8.07 µg/mL)

**Q.** What about the MIC (Pseudomonas aeruginosa [9]) of the same compound?
**A.** 19 µM (≈ 8.07 µg/mL)

**Q.** And the MIC (Escherichia coli [10])?
**A.** 151 µM (≈ 64.2 µg/mL)

**Q.** What about the MIC (Pseudomonas aeruginosa [11]) of the same compound?
**A.** 76 µM (≈ 32.3 µg/mL)

**Q.** What about the MIC (Klebsiella pneumoniae) of the same compound?
**A.** 302 µM (≈ 128 µg/mL)

**Q.** What about the MIC (Acinetobacter baumannii) of the same compound?
**A.** 151 µM (≈ 64.2 µg/mL)

**Q.** What about the hemolysis at 1 h, 2.4 µM [12] of the same compound?
**A.** 0.472%

**Q.** And the hemolysis at 1 h, 4.7 µM [13]?
**A.** 1.07%

**Q.** What about the hemolysis at 1 h, 9.4 µM [14] of the same compound?
**A.** 1.25%

**Q.** What about the hemolysis at 1 h, 18.9 µM [15] of the same compound?
**A.** 2.21%

**Q.** What about the viability at 72 h, up to 301.9 µM [16] of the same compound?
**A.** > 75%

**Q.** What about the viability at 72 h, up to 301.9 µM [17] of the same compound?
**A.** > 75%

**Q.** What about the Activity [18] of the same compound?
**A.** Toxic

**Q.** And the Activity [19]?
**A.** Non-Toxic

**Q.** What about the Activity [20] of the same compound?
**A.** Non-Toxic

**Q.** And the Activity [21]?
**A.** Non-Toxic

**Q.** What about the Activity (Staphylococcus aureus [22]) of the same compound?
**A.** Active

**Q.** And the Activity (DNA [23])?
**A.** Active

**Q.** What about the K (DNA [24]) of the same compound?
**A.** 6.32 10^4L/mol

**Q.** What about the Activity (DNA [25]) of the same compound?
**A.** Dose-Dependent Effect

**Q.** What about the Activity (DNA [26]) of the same compound?
**A.** 420 nm

**Q.** And the IC50 (Topoisomerase IV)?
**A.** 10.9 µM

**Q.** And the Activity (Cell membrane)?
**A.** Active
